Results published in PubChem BioAssay AID1355 (Sanford-Burnham Center for Chemical Genomics, 2008).
The source made the active and inactive calls.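 Rule for the calls: active = survival at least 30 percentage points above the stressed untreated control at any dose of the stressor; inactive = the rest.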

Tested on: SW-1 melanoma, thapsigargin-induced death, ATPlite luminescence, 24 h
Assay: ER stress cell death suppression in melanoma – SW-1 melanoma, ATP content luminescence, SAR follow-up (AID 1355)
Settings: at 25 µM, stronger effect = higher value
[1] = measured here: thapsigargin 7.5 uM
[2] = measured here: thapsigargin 15 uM

Row | Structure (SMILES) | survival | survival [1] [%] | survival [2] [%]
1 | O=C1CC(c2ccccc2)CC2=C1C(c1c(F)cccc1Cl)Nc1ccccc1N2 (stereo not drawn) | 73% | 72 | 3
2 | COc1ccc(C2CC(=O)C3=C(C2)Nc2ccccc2NC3c2ccccc2C(F)(F)F)cc1OC (stereo not drawn) | 98% | 89 | 7
3 | CC1(C)CC(=O)C2=C(C1)Nc1ccccc1NC2c1ccc(-c2ccccc2)cc1 (stereo not drawn) | 66% | 69 | 7
4 | COc1ccc(C2CC(=O)C3=C(C2)Nc2ccccc2NC3c2cccc(Oc3ccccc3)c2)cc1OC (stereo not drawn) | 84% | 77 | 18
5 | CSc1ccc(C2Nc3ccccc3NC3=C2C(=O)CC(c2ccccc2)C3)cc1 (stereo not drawn) | 74% | 72 | 23
6 | COc1ccc(C2CC(=O)C3=C(C2)Nc2ccccc2NC3c2cc(C)ccc2C)cc1 (stereo not drawn) | 83% | 72 | 9
7 | COc1ccc(C2CC(=O)C3=C(C2)Nc2ccccc2NC3c2cccc(C(F)(F)F)c2)cc1OC (stereo not drawn) | 86% | 75 | 8
8 | COc1ccc(C2CC(=O)C3=C(C2)Nc2ccccc2NC3c2cccc(Br)c2)cc1OC (stereo not drawn) | 67% | 72 | 7
9 | CCOc1cccc(C2Nc3ccccc3NC3=C2C(=O)CC(c2ccc(OC)cc2)C3)c1 (stereo not drawn) | 33% (inactive) | 75 | 3
10 | CCOc1cc(C2Nc3ccccc3NC3=C2C(=O)CC(c2ccc(OC)cc2)C3)cc(Cl)c1O (stereo not drawn) | 30% (inactive) | 71 | 2
11 | CCCOc1ccc(C2Nc3ccccc3NC3=C2C(=O)CC(c2ccc(OC)c(OC)c2)C3)cc1 (stereo not drawn) | 83% | 71 | 3
